The series is classed as in vivo. The settings on record: for Cardiac Index, slope of percentage change from baseline (Slope ± SE) / Pulmonary capillary wedge pressure, slope of percentage change from baseline (Slope ± SE) / Systolic Blood Pressure, slope of percentage change from baseline (Slope ± SE): per hour; for Cardiac Index, slope of percentage change from baseline (Slope ± SE) / Pulmonary capillary wedge pressure, slope of percentage change from baseline (Slope ± SE) / Systolic Blood Pressure, slope of percentage change from baseline (Slope ± SE) / Heart Rate, slope of percentage change from baseline (Slope ± SE): first 24 postoperative hours; for Heart Rate, slope of percentage change from baseline (Slope ± SE): percentage change per hour; for absolute mean heart rate: 24 hours after surgery; for patients who received dopamine / use of any inotropic agent: first 7 days after surgery; for patients who received dopamine: placebo 77%; for use of any inotropic agent: placebo 79%; for insertions of an intraaortic balloon pump for low cardiac output: nine in placebo group; for death rate: placebo 6.0%. The protocol:
A double blind, placebo controlled trial was performed on 253 patients randomized into three groups. The objective of the study was to evaluate the safety, tolerance and efficacy of adenosine in patients undergoing coronary artery bypass surgery. Inadequate myocardial protection in patients undergoing coronary artery bypass surgery contributes to overall hospital mortality and morbidity.
The treatments included the intraoperative administration of cold blood cardioplegia, blood cardioplegia including 500 μM adenosine (“low dose adenosine”), and blood cardioplegia including 200 mM adenosine (“high dose adenosine”). Patients receiving adenosine were also given an infusion of adenosine (200 μg/kg/min) 10 minutes before and 15 minutes after removal of the aortic crossclamp. Invasive and non-invasive measurements of ventricular performance were obtained before, during and after surgery.
Exclusion criteria included known or suspected pregnancy, known hypersensitivity to adenosine, and enrollment in another clinical trial study.
Study Design: 253 patients were split into three groups. Group A patients (n=84) received placebo and were given standard hyperkalemic cold blood cardioplegia. Group B patients (low dose adenosine, n=84) were given hyperkalemic cold blood cardioplegia containing 500 μM adenosine. Group C patients (high dose adenosine) were given hyperkalemic cold blood cardioplegia containing 200 mM adenosine. The patients who received adenosine cardioplegia were also exposed to a 10 minute infusion of adenosine pre-treatment (200 μg/kg/min) immediately before application of the aortic crossclamp and a 15 minute infusion of adenosine immediately after removing the crossclamp.
Before surgery, patients were evaluated for the degree of ischemic disease by history, echocardiography, and cardiac catheterization. In the operating room, hemodynamic measurements were obtained and recorded just before initiating cardiopulmonary bypass and 15, 30, 45 and 60 minutes and 2, 3, 4, 5, and 8 hours after cessation of bypass. In patients requiring intravenous inotropic medications in the postoperative period, hemodynamic monitoring was continued with measurements of specified parameters every 2 hours for 24 hours, and then every 4 hours until the inotropic medications were discontinued or it was ascertained that monitoring was no longer helpful in the management of the patient.
Invasive hemodynamic measurements included systolic blood pressure, heart rate, central venous pressure, pulmonary artery pressure, pulmonary capillary wedge pressure and cardiac output. The cardiac index, stroke volume, systemic vascular resistance, pulmonary vascular resistance, right ventricular stroke work index and left ventricular stroke index were derived. The cardiac output measurements were obtained using a thermodilution catheter and computer. Noninvasive heart function studies included 12-lead electrocardiograms, preoperative stress dobutamine echocardiography, and pre- and post-operative transthoracic and transesophageal echocardiograms. Patients were monitored from the time of enrollment to follow-up 4 to 6 weeks after discharge from the hospital. This included routine blood work and chemistries, arterial blood gases, pH, creatine kinase (CK)-MB concentrations, and pulse oximetry.
The primary endpoints of the study were reduction in total dopamine use during the first 7 days, reduction in all inotropic support required during the first 7 days, reduction in the use of dopamine to less than 5 μg/kg/min.
There were 21 secondary endpoints, including improvement in postoperative hemodynamics, reduction in the use of the intraaortic balloon pump, reduction in the incidence of myocardial infarction, and decrease in the mortality rate.
All patients who received study treatment and underwent coronary bypass surgery were included in the intent-to-treat analysis. […]

[1] abbreviates: Group B, low dose adenosine (500 μM cardioplegia + infusion).
Setting [2] is: Group C, high dose adenosine (200 mM cardioplegia + infusion).

Structures are written as SMILES. Like-named read-outs stand apart in the source and are kept apart here.

With `Nc1ncnc2c1ncn2[C@@H]1O[C@H](CO)[C@@H](O)[C@H]1O` [adenosine], under setting [1], the “Cardiac Index, slope of percentage change from baseline (Slope ± SE)” value was determined as 1.130 ± 0.105; the “Pulmonary capillary wedge pressure, slope of percentage change from baseline (Slope ± SE)” value is on record as 0.688 ± 0.249; the “Systolic Blood Pressure, slope of percentage change from baseline (Slope ± SE)” value came to 0.387 ± 0.060. Also, under “Group B, low dose adenosine (500 μM in cold blood cardioplegia + 200 μg/kg/min infusion)”, the “Heart Rate, slope of percentage change from baseline (Slope ± SE)” value amounted to 0.510 ± 0.078. Under setting [2], the “Cardiac Index, slope of percentage change from baseline (Slope ± SE)” value turned out to be 1.468 ± 0.112; the “Pulmonary capillary wedge pressure, slope of percentage change from baseline (Slope ± SE)” value is −0.869 ± 0.288; the “Systolic Blood Pressure, slope of percentage change from baseline (Slope ± SE)” value is listed as 0.440 ± 0.063. The “Heart Rate, slope of percentage change from baseline (Slope ± SE)” value (Group C, high dose adenosine (200 mM in cold blood cardioplegia + 200 μg/kg/min infusion)) is given as 0.820 ± 0.081. Under “high dose adenosine group versus placebo”, the “high-dose dopamine support (>5 μg/kg/min)” value is given as “trend toward a decrease”. For the same compound, where the note is “high dose adenosine group”, the “absolute mean heart rate” value is reported as 96.8±5.4 beats per minute, the “patients who received dopamine” value amounted to 79%, the “use of any inotropic agent” value is 80% and the “insertions of an intraaortic balloon pump for low cardiac output” value was “five”. Where the note is “high dose adenosine group”, the death rate is 1.2%. Besides, the “postoperative MI rate” value (high dose adenosine group, placebo 9.5%) amounted to 1.2%. For the same compound, the “percentage of patients experiencing one of the composite adverse events (high dose dopamine, epinephrine use, intraaortic balloon pump, MI, death)” value (high dose adenosine versus placebo, p=0.006) is on record as “lower”. Besides, the safety and tolerance entry (human, in vivo) is “safe and well tolerated”. Further, where the note is “low dose adenosine group”, the “absolute mean heart rate” value is recorded as 90.7±3.6 beats per minute, the “patients who received dopamine” value is listed as 71%, the “use of any inotropic agent” value was 73% and the “insertions of an intraaortic balloon pump for low cardiac output” value is “two”. The death rate (low dose adenosine group) was determined as 3.6%.

The values are drawn from patent publication US20030166605A1, “Method of minimizing damage to heart tissue during cardiac surgery and cardiac transplantation” (priority 1999, published 2003).
